Data set [1] can be described thus: Inhibition of anti-human alphaIgM-stimulated MIP1beta production in human Ramos B cells preincubated for 1 hr followed by anti-human IgM stimulation for 6 hrs by ELISA. Type of data set: functional, cell-based.
Data set [2] addresses T1, Tyrosine-protein kinase BTK (Homo sapiens, UniProt Q06187). The data set is described as follows: Inhibition of human recombinant full length N-terminal His6-tagged BTK expressed in baculovirus infected Sf9 cells using fluorescein labeled Blk/Lyntide substrate preincubated with enzyme for 60 mins followed by further incubation with substrate and ATP for 120 mins by IMAP assay.

Data set [3] in a line: Inhibition of goat anti-human IgM F(ab')-stimulated CD86 cell surface expression in human PBMC preincubated for 2 hrs followed by anti-human IgM stimulation for 18 hrs by flow cytometric analysis. In kind it is functional, tissue-based. Background: In flow cytometry, cells or beads pass a laser one at a time.
Another data set relates to Blood. Kind of data set: Inhibition of mouse anti-human anti-IgD-stimulated CD86 cell surface expression in human whole blood preincubated for 2 hrs followed by anti-human anti-IgD stimulation for 18 hrs by flow cytometric analysis. In kind it is functional, tissue-based.
A further data set deals with EGFR (phosphorylation) (Homo sapiens, UniProt P00533). The data set is described as follows: Inhibition of EGFR phosphorylation in human A431 cells at 10000 nM relative to control. In kind it is cell-based.
Data set [4] addresses T1, Tyrosine-protein kinase BTK. Kind of data set: Inhibition of His-tagged recombinant human His-tagged full length BTK expressed in baculovirus expression system using Tyr01 peptide as substrate preincubated for 1 hr by Z'lyte assay.
In data set [5] the target is T2, Tyrosine-protein kinase Tec (Homo sapiens, UniProt P42680).
T2 sequence (P42680 whole entry): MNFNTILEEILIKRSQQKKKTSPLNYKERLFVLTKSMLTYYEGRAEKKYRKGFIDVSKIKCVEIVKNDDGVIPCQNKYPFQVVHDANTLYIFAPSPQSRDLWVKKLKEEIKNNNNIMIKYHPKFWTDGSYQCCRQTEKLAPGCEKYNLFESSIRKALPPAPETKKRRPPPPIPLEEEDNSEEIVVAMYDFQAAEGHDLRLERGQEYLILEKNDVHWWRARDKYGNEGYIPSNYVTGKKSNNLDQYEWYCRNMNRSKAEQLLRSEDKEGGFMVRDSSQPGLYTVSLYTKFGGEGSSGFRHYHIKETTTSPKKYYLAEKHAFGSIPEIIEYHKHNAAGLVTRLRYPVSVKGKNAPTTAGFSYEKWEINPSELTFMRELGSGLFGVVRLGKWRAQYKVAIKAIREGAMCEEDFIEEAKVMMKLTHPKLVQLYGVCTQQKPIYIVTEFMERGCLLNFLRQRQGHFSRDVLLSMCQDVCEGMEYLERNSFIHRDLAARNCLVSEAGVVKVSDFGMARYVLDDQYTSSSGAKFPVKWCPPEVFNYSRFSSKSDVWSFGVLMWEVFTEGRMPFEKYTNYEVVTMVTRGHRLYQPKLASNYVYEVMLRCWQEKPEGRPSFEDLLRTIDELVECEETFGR
Kind of data set: Inhibition of His-tagged recombinant human TEC expressed in baculovirus expression system preincubated for 1 hr by Z'lyte assay.

Data set [6] has as its target T3, Tyrosine-protein kinase TXK (Homo sapiens, UniProt P42681).
T3 sequence (P42681 whole entry): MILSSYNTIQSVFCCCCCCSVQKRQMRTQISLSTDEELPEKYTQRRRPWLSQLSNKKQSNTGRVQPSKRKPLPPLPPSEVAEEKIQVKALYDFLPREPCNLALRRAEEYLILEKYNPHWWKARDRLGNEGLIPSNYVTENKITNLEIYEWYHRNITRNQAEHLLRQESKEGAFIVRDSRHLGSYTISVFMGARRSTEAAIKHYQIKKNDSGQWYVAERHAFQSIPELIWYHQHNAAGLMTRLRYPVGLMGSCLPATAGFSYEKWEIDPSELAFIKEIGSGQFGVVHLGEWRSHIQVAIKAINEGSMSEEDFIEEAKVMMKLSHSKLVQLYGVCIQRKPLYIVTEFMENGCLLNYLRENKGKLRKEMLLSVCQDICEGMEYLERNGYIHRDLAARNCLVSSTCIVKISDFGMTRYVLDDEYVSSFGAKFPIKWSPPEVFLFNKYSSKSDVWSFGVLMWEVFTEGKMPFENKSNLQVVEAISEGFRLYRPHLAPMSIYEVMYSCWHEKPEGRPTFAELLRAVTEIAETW
Kind of data set: Inhibition of recombinant human N-terminal GST-tagged TXK (260 to 527 residues) expressed in baculovirus expression system using tyrosine-6 peptide as substrate preincubated for 1 hr in presence of ATP by Z'-LYTE assay.

Data set [7] deals with Epidermal growth factor receptor (Homo sapiens, UniProt P00533). The data set is described as follows: Inhibition of EGFR phosphorylation in human A431 cells. In kind it is cell-based.
The nature of data set [8]: In vivo inhibition of CD69 expression in po dosed mouse. Type of data set: functional.

Bounds are passed on as bounds.

T1 sequence (Q06187 whole entry): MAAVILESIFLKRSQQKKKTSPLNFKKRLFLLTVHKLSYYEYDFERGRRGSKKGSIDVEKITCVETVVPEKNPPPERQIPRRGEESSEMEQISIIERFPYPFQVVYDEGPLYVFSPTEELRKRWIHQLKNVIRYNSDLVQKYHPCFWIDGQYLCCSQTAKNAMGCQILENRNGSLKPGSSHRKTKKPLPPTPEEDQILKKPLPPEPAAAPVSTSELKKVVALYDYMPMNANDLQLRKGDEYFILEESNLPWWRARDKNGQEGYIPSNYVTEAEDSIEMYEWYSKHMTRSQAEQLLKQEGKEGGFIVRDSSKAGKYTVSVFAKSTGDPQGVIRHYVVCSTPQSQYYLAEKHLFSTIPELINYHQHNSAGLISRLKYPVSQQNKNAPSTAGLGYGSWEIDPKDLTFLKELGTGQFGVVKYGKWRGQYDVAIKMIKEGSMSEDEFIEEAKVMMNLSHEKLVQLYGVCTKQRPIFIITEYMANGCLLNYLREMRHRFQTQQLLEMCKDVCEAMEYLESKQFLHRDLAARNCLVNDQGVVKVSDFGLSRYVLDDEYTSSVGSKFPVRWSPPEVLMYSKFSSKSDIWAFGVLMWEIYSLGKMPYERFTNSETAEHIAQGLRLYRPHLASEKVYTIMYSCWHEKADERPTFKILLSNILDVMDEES
Epidermal growth factor receptor, sequence (P00533 whole entry): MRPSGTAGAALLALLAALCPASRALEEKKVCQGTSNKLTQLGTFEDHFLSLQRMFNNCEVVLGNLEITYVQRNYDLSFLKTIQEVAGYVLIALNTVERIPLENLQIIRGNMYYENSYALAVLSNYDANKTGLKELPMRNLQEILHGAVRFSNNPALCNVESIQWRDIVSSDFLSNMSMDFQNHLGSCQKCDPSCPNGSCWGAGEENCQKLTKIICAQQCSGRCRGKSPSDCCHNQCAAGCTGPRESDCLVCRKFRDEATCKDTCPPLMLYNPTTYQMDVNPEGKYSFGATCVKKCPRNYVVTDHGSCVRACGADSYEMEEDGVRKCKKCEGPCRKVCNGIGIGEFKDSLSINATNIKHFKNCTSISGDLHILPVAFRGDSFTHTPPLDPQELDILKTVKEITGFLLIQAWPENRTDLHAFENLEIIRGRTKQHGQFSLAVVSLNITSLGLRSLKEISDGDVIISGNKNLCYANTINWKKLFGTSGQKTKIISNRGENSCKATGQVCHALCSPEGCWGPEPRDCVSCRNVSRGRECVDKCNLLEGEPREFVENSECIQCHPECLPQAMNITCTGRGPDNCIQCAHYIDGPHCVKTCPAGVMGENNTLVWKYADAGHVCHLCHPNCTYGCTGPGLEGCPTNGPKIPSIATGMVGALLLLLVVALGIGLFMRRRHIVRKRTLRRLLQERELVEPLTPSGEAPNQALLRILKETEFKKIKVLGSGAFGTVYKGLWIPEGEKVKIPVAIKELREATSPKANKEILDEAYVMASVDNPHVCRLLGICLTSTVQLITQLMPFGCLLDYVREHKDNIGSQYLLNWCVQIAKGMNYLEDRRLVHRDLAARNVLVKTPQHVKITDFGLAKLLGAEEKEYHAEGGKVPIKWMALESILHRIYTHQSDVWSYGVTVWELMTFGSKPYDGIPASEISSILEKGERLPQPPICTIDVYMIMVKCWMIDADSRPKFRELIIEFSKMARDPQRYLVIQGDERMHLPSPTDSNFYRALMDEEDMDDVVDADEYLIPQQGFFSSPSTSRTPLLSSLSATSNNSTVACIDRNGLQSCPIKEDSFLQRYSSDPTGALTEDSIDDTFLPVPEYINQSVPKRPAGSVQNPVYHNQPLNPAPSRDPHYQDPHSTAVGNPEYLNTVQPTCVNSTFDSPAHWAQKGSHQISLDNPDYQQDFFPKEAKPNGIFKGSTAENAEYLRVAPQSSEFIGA
EGFR (phosphorylation), sequence (P00533 whole entry): as above

`C=CC(=O)Nc1ccc2nccc(Oc3ccc(C(=O)Nc4cc(CC)ccn4)cc3)c2c1`: the EC50 in [1] stood at 22 nM; in [3] it was 21 nM; in the data set with Blood, 267 nM. Besides, the IC50 in data set [2] was 1.2 nM; in data set [4], 4 nM; in data set [5], 38 nM; in [6] it was 294 nM. Besides, on EGFR (phosphorylation), the inhibition at 10 µM was 36%.

As to `CC#CC(=O)Nc1cc2c(Oc3ccc(C(=O)Nc4ccccn4)cc3)ccnc2cc1OCCN1CCOCC1`, the EC50 in data set [1] is 15 nM; in [7], over 1000 nM. For the same molecule, the IC50 in data set [2] was 0.54 nM; in [4], 8.3 nM; in data set [5] it was 219 nM; in [6] it was 229 nM.

For `COc1cc2nccc(Oc3ccc(C(=O)Nc4ccccn4)cc3)c2cc1NC(=O)C#CCCN1CCOCC1`, the EC50 was 4.1 nM in data set [1] and over 1000 nM in data set [7]. Also, the IC50 in data set [2] came to 1.6 nM; in data set [4], 1.5 nM; in data set [5] it was 184 nM; in [6], 19 nM. The molecule further showed an ED50 in data set [8] of 13 mg/kg.

By EC50 is commonly meant the concentration that produces a half-maximal response. Low readings indicate a more potent agent, high ones a less potent agent. What is called IC50 is the midpoint of a concentration-inhibition curve. For orientation: inhibition means the percentage by which the read-out fell short of the control. Read a high inhibition as a response far below the control. By ED50 is commonly meant the dose that gives a 50% effect, or the effect in half of the subjects. A low value points to greater potency.

Source of the values: ChEMBL document CHEMBL4725253, “Discovery of quinoline-based irreversible BTK inhibitors” (Bioorg Med Chem Lett, 2020).
